Measurements reported in ChEMBL document CHEMBL4507273 (2021).

Assays:
[1] = biological target: Adenosine Transporter (Cavia porcellus) (UniProt H0V4R7+H0UUG1+H0V3Z5); assay: Inhibition of Transporter, Adenosine at compound concentration of 10.0 uM in the Eurofins-Panlabs radioligand binding assay (Eurofins_assay_202000); assay type: protein assay; set-up: ligand concentration 0.5 nM, non-specific ligand with concentration 5 uM Nitrobenzylthioinosine, incubation time 30 min, incubation temperature 25 C; conditions: Compound concentration 10.0 uM
ATR/ATRIP (Homo sapiens) = ATR/ATRIP (Homo sapiens) (UniProt Q13535+Q8WXE1); assay: ATR/ATRIP(h) Eurofins Kinase panel; assay type: protein-complex assay; conditions: Compound concentration 1.0 uM
[2] = biological target: Proto-oncogene tyrosine-protein kinase receptor Ret (Homo sapiens) (UniProt P07949); assay: Ret(h) Eurofins Kinase panel; conditions: Compound concentration 1.0 uM
[3] = biological target: BDNF/NT-3 growth factors receptor (Homo sapiens) (UniProt Q16620); assay: TrkB(h) Eurofins Kinase panel; conditions: Compound concentration 1.0 uM
[4] = biological target: Vascular endothelial growth factor receptor 1 (Homo sapiens) (UniProt P17948); assay: Flt1(h) Eurofins Kinase panel; conditions: Compound concentration 1.0 uM
[5] = biological target: Tau-tubulin kinase 1 (Homo sapiens) (UniProt Q5TCY1); assay: TTBK1(h) Eurofins Kinase panel; conditions: Compound concentration 1.0 uM
D(3) dopamine receptor = D(3) dopamine receptor (Homo sapiens, UniProt P35462); conditions: Compound concentration 10.0 uM
D(1A) dopamine receptor = D(1A) dopamine receptor (Homo sapiens, UniProt P21728); conditions: Compound concentration 10.0 uM
[6] = biological target: Eukaryotic translation initiation factor 2-alpha kinase 3 (Homo sapiens) (UniProt Q9NZJ5); assay: PEK(h) Eurofins Kinase panel; conditions: Compound concentration 1.0 uM
[7] = biological target: T1, Testis-specific serine/threonine-protein kinase 1 (Homo sapiens) (UniProt Q9BXA7); assay: TSSK1(h) Eurofins Kinase panel; conditions: Compound concentration 1.0 uM
T1 sequence (whole entry): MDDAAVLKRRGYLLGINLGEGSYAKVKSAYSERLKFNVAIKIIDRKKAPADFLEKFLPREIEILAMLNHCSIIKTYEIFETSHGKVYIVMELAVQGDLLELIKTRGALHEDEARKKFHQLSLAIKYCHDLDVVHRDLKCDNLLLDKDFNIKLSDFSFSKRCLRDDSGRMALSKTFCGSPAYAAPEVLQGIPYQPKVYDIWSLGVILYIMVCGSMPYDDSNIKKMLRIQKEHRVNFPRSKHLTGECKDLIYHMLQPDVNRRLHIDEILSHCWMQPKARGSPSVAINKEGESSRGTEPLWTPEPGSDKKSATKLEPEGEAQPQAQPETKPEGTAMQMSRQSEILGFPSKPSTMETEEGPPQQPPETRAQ

[8] = biological target: Tyrosine-protein kinase Lyn (Homo sapiens) (UniProt P07948); assay: Lyn(h) Eurofins Kinase panel; conditions: Compound concentration 1.0 uM
[9] = biological target: T2, Protein kinase C epsilon type (Homo sapiens) (UniProt Q02156); assay: PKCepsilon(h) Eurofins Kinase panel; conditions: Compound concentration 1.0 uM
T2 sequence (whole entry): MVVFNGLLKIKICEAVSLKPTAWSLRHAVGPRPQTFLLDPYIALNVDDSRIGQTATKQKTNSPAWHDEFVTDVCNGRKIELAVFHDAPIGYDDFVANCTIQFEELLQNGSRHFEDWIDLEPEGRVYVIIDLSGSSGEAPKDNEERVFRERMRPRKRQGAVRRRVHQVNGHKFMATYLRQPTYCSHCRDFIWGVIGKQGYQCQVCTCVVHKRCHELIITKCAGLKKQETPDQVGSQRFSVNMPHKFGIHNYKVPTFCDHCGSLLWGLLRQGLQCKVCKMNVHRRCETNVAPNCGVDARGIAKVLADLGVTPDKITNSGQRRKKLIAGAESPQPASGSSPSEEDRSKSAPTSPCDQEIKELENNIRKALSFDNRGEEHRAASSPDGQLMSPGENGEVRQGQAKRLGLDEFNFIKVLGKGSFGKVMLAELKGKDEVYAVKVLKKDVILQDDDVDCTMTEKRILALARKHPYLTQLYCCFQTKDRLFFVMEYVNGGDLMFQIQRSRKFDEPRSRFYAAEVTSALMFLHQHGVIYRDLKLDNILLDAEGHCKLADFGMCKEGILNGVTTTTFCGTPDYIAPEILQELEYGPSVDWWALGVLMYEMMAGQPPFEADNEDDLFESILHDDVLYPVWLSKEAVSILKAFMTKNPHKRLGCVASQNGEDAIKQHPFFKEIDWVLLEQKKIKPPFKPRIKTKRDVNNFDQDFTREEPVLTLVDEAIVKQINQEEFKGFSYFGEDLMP

[10] = biological target: PAS domain-containing serine/threonine-protein kinase (Homo sapiens) (UniProt Q96RG2); assay: PASK(h) Eurofins Kinase panel; conditions: Compound concentration 1.0 uM
[11] = biological target: Leukocyte tyrosine kinase receptor (Homo sapiens) (UniProt P29376); assay: LTK(h) Eurofins Kinase panel; conditions: Compound concentration 1.0 uM
Histamine H2 receptor = Histamine H2 receptor (Homo sapiens, UniProt P25021); conditions: Compound concentration 10.0 uM
D(2) dopamine receptor = D(2) dopamine receptor (Homo sapiens, UniProt P14416); conditions: Compound concentration 10.0 uM
[12] = biological target: Vascular endothelial growth factor receptor 3 (Homo sapiens) (UniProt P35916); assay: Flt4(h) Eurofins Kinase panel; conditions: Compound concentration 1.0 uM
[13] = biological target: T3, Alpha-2C adrenergic receptor (Homo sapiens) (UniProt P18825); conditions: Compound concentration 10.0 uM
T3 sequence (whole entry): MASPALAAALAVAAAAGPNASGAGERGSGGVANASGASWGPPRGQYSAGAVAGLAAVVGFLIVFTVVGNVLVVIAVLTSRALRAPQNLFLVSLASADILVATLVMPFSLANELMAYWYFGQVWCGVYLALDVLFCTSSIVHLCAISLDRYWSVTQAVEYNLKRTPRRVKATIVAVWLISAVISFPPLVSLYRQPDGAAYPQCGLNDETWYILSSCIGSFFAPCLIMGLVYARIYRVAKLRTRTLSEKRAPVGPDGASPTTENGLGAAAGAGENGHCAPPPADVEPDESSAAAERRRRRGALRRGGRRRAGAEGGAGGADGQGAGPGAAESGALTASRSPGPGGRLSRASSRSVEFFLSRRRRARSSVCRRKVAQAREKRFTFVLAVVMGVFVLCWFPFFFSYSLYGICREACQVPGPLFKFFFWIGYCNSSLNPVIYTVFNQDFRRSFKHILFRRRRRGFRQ

[14] = biological target: 5-hydroxytryptamine receptor 2B (Homo sapiens, UniProt P41595); conditions: Compound concentration 10.0 uM
[15] = biological target: Kappa-type opioid receptor (Homo sapiens, UniProt P41145); conditions: Compound concentration 10.0 uM
[16] = biological target: Tyrosine-protein kinase receptor UFO (Homo sapiens) (UniProt P30530); assay: Axl(h) Eurofins Kinase panel; conditions: Compound concentration 1.0 uM
[17] = biological target: Casein kinase II subunit alpha' (Homo sapiens) (UniProt P19784); assay: CK2alpha2(h) Eurofins Kinase panel; conditions: Compound concentration 1.0 uM
[18] = biological target: Sodium-dependent serotonin transporter (Homo sapiens, UniProt P31645); assay: GPCRScan assay: inhibition of SERT; set-up: radioligand conc. used [nm] 1.5 – 2.0, parental cells stable HEK
[19] = biological target: Delta-type opioid receptor (Homo sapiens) (UniProt P41143); conditions: Compound concentration 10.0 uM
Histamine H4 receptor = Histamine H4 receptor (Homo sapiens, UniProt Q9H3N8); assay: GPCRScan assay: inhibition of H4; set-up: radioligand conc. used [nm] 1.0 – 5.0, parental cells HEK T

Chain of 5-hydroxytryptamine receptor 2B (P41595 whole entry): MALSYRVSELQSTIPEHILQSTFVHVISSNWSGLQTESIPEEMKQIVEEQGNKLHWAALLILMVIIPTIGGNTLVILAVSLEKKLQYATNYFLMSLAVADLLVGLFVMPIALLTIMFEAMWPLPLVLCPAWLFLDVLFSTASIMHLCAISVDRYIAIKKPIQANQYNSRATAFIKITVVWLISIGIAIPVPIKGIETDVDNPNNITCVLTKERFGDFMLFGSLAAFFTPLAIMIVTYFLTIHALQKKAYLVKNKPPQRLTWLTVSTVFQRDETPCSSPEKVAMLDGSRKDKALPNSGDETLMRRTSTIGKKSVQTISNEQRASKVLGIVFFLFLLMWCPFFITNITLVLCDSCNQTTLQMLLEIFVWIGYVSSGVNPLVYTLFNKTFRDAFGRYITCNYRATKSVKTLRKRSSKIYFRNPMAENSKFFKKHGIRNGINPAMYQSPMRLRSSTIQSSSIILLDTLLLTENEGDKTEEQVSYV
Chain of Delta-type opioid receptor (Homo sapiens) (P41143 whole entry): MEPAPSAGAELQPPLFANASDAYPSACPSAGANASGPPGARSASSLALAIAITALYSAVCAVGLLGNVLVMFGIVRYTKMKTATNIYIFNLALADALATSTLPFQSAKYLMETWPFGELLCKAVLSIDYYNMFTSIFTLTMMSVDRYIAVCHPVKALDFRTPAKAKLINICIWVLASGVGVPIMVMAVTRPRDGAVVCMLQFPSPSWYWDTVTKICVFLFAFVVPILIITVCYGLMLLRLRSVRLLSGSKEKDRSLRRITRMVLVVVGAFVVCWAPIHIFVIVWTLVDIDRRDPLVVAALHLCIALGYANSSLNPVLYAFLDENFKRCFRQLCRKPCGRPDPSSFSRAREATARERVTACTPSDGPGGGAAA
Chain of Histamine H2 receptor (P25021 whole entry): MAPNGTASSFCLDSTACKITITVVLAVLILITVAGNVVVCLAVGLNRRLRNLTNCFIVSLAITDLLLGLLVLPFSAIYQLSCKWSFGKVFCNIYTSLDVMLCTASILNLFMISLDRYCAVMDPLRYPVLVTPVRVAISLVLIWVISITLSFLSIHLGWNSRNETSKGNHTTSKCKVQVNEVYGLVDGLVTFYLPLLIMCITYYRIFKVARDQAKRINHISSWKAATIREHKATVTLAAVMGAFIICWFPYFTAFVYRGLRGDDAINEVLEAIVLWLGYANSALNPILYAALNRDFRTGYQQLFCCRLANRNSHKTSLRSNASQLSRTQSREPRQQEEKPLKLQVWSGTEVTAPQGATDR
Chain of D(2) dopamine receptor (P14416 whole entry): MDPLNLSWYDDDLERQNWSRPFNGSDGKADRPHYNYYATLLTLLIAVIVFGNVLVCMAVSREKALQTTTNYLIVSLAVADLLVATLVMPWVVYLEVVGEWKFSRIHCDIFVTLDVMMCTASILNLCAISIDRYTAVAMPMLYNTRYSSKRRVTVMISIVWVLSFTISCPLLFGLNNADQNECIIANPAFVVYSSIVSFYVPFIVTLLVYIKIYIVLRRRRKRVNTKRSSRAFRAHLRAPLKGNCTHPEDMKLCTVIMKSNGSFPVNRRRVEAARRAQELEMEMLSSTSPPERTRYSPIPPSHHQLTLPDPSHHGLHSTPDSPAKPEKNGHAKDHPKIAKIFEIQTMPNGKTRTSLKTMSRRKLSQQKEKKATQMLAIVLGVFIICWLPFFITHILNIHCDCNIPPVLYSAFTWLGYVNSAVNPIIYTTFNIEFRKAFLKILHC
Chain of PAS domain-containing serine/threonine-protein kinase (Homo sapiens) (Q96RG2 whole entry, the tested form may be a part): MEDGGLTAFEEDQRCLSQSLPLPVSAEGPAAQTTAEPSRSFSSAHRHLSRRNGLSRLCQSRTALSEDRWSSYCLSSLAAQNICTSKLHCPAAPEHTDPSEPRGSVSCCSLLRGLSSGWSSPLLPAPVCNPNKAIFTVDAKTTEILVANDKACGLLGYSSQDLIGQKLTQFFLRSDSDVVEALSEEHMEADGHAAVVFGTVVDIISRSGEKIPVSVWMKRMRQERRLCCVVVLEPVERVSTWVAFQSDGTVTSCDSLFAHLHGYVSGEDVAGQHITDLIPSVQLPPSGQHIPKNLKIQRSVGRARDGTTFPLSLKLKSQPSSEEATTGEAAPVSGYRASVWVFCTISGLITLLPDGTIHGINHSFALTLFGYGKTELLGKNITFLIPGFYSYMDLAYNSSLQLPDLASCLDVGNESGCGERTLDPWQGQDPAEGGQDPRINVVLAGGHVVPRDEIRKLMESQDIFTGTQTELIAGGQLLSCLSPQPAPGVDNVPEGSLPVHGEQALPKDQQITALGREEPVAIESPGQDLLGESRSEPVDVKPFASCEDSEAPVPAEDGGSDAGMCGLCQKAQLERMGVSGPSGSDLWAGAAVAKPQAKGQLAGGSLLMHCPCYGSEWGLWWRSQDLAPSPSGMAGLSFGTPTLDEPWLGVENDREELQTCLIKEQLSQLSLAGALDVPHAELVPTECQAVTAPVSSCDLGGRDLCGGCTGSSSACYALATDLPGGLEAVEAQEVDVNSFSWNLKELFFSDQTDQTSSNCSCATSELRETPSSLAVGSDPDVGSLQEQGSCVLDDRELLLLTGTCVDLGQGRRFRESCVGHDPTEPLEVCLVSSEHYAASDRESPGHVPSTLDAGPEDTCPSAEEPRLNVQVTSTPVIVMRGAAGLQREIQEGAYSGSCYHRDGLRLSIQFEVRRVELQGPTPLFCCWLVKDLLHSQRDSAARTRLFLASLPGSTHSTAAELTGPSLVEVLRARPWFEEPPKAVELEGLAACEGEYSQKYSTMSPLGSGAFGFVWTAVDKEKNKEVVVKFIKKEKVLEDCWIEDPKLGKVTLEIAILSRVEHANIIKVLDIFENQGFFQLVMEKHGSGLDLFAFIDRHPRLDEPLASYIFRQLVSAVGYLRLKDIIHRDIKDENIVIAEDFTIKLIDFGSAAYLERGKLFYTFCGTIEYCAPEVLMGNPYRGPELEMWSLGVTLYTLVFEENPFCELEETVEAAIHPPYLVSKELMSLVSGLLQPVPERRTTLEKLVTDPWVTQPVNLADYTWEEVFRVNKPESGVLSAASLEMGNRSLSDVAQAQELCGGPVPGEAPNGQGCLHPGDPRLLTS
Chain of Tau-tubulin kinase 1 (Homo sapiens) (Q5TCY1 whole entry): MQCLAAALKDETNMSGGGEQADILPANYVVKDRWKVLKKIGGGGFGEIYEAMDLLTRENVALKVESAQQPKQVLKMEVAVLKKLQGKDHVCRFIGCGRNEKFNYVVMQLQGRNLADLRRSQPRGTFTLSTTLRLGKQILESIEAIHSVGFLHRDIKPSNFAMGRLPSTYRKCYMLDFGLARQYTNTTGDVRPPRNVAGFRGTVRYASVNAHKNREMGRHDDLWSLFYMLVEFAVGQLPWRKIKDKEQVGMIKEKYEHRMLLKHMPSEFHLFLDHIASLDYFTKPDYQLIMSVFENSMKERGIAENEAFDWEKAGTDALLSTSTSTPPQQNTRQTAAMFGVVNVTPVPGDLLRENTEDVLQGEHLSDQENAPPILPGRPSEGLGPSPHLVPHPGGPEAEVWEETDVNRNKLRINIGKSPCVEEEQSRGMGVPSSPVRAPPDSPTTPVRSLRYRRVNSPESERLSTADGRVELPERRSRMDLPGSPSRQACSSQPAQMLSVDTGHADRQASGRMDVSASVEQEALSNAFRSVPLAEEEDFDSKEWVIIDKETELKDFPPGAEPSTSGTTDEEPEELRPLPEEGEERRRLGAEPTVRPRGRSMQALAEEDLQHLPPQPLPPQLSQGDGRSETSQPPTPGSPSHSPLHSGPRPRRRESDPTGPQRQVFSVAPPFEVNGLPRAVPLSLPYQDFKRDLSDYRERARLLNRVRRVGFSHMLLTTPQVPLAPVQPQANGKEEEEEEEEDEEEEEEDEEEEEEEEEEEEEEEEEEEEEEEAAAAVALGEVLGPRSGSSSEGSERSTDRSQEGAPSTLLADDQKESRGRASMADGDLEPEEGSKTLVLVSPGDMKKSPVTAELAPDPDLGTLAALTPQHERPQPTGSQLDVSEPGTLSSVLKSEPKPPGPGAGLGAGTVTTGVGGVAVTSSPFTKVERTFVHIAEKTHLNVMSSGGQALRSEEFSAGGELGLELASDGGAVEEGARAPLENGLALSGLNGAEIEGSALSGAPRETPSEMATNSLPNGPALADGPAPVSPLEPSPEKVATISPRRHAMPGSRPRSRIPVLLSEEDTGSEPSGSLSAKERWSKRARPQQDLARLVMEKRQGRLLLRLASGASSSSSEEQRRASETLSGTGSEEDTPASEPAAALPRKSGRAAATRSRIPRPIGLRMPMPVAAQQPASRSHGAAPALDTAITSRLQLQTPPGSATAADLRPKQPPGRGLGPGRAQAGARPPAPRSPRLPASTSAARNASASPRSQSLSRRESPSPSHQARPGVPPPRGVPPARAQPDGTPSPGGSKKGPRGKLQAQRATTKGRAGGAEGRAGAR
Chain of Kappa-type opioid receptor (P41145 whole entry): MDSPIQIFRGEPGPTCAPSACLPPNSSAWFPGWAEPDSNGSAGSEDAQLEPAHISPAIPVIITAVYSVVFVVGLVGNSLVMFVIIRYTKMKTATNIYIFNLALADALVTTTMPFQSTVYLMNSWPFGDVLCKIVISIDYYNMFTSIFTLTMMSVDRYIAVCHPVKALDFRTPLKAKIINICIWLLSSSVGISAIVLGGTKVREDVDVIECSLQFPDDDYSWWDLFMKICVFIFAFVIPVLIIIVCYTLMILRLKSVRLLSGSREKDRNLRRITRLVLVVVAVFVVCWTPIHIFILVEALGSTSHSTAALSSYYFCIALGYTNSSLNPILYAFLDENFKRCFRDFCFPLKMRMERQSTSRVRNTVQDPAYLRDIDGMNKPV
Chain of Casein kinase II subunit alpha' (Homo sapiens) (P19784 whole entry, looked up): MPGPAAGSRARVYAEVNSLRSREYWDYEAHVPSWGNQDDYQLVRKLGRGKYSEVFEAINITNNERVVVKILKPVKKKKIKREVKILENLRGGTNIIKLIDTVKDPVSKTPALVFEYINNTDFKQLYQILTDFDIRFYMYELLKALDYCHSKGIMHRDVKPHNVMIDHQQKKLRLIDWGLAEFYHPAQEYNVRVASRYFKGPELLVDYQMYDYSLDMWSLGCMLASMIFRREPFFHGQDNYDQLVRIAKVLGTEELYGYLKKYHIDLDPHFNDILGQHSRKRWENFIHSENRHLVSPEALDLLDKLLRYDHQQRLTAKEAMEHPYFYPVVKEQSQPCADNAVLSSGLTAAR

## CNCc1ccccc1-c1csc([C@@H](C)Nc2nc(C)nc3cc(OC)c(OC)cc23)c1 [BAY-293]
[1]
  inhibition: 62%
ATR/ATRIP (Homo sapiens)
  % residual kinase activity: 88%
[2]
  % residual kinase activity: 81%
[3]
  % residual kinase activity: 79%
[4]
  % residual kinase activity: 88%
[5]
  % residual kinase activity: 87%
D(3) dopamine receptor
  inhibition: 88%
D(1A) dopamine receptor
  inhibition: 85%
[6]
  % residual kinase activity: 87%
[7]
  % residual kinase activity: 79%
[8]
  % residual kinase activity: 88%
[9]
  % residual kinase activity: 88%
[10]
  % residual kinase activity: 84%
[11]
  % residual kinase activity: 75%
Histamine H2 receptor
  inhibition: 99%
D(2) dopamine receptor
  inhibition: 67%
[12]
  % residual kinase activity: 82%
[13]
  inhibition: 99%
[14]
  inhibition: 100%
[15]
  inhibition: 105%
[16]
  % residual kinase activity: 88%
[17]
  % residual kinase activity: 67%

## CNCc1ccccc1-c1csc([C@H](C)Nc2nc(C)nc3cc(OC)c(OC)cc23)c1 [BAY-294]
[18]
  Ki: 4.23 µM
[19]
  inhibition: 10.5%
Histamine H4 receptor
  Ki: 1.89 µM
